Results on one compound are retold here after publication PMC9650428, “Mutagenesis and functional analysis of SotB: A multidrug transporter of the major facilitator superfamily from Escherichia coli” (Frontiers in Microbiology, 2022).

The target in one assay is T1, SotB W119A (Escherichia coli, UniProt P31122, W119A).
T1 construct: The full-length sotB and lapC genes from the E. coli MG1655 genome were subcloned into the cloning vector pET28a; 8xHis (C); made in house; host or cells: E. coli C43(DE3)
T1 sequence (P31122 1-396 W119A): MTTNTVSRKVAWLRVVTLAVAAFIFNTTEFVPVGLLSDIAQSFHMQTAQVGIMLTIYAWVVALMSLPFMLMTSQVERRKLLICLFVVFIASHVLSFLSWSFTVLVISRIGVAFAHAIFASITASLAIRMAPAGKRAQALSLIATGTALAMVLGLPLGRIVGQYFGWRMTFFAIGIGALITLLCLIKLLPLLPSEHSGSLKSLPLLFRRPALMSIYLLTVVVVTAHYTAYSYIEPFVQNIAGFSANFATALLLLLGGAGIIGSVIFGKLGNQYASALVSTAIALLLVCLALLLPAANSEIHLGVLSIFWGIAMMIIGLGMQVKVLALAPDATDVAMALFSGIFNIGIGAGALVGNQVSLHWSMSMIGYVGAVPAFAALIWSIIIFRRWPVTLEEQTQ
In words: SPR affinity assay, SotB variant W119A. The following applies: read-out: KD, binding affinity with W119A. As for the experimental part:
(§1) The instrument used in surface plasmon resonance (SPR) affinity assays was OpenSPR (Nicoya, Canada) and the chip used was COOH sensor chip (Nicoya, Canada). SotB and its variants were as ligands. IPTG, L-arabinose, D-xylose, D-glucose, D-fructose, and D-mannose were as small molecules. Using HSB-EP buffer (10 mM HEPES, 150 mM NaCl, 3 mM EDTA, 0.005% Tween-20, pH7.4) as test buffer and setting flow rate 150 μl/min after installed COOH chip according to OpenSPRTM instrument standard operating procedure. After the signal baseline was reached, loading 200 μl 80% isopropyl alcohol and ran for 10 s to drain bubbles. After reaching baseline, the sample ring was rinsed with HSB-EP buffer and emptied with air. After the signal reached the baseline, loading 200 μl EDC (400 mM, Sigma)/NHS (100 mM, Sigma; 1:1) solution with a flow rate 20 μl/min for 4 min. Then, loading 200 μl ligand (SotB/SotB variants) diluted by the activation buffer (sodium acetate, 10 mM, pH3.5) and ran for 4 min (20 μl/min). Then the sample ring was rinsed with HSB-EP buffer and emptied with air. Loading 200 μl 1 M ethanolamine (Sigma) blocking solution (20 μl/min, 4 min), rinsed the sample ring with HSB-EP buffer, and emptied the sample ring with air. Observing baseline for 5 min to ensure stability. […]

The target in another assay is T2, SotB S339A (Escherichia coli, UniProt P31122, S339A).
T2 construct: The full-length sotB and lapC genes from the E. coli MG1655 genome were subcloned into the cloning vector pET28a; 8xHis (C); made in house; host or cells: E. coli C43(DE3)
T2 sequence (P31122 1-396 S339A): T1 sequence (P31122 1-396 W119A) with A119W, S339A
In words: SPR affinity assay, SotB variant S339A. As to conditions: read-out: KD, binding affinity with S339A. As for the experimental part:
as §1

Another assay concerns the target T3, SotB N343A (Escherichia coli, UniProt P31122, N343A).
T3 construct: The full-length sotB and lapC genes from the E. coli MG1655 genome were subcloned into the cloning vector pET28a; 8xHis (C); made in house; host or cells: E. coli C43(DE3)
T3 sequence (P31122 1-396 N343A): T1 sequence (P31122 1-396 W119A) with A119W, N343A
In words: SPR affinity assay, SotB variant N343A. In kind it is binding. The protocol: The instrument used in surface plasmon resonance (SPR) affinity assays was OpenSPR (Nicoya, Canada) and the chip used was COOH sensor chip (Nicoya, Canada). SotB and its variants were as ligands. IPTG, L-arabinose, D-xylose, D-glucose, D-fructose, and D-mannose were as small molecules. Using HSB-EP buffer (10 mM HEPES, 150 mM NaCl, 3 mM EDTA, 0.005% Tween-20, pH7.4) as test buffer and setting flow rate 150 μl/min after installed COOH chip according to OpenSPRTM instrument standard operating procedure. After the signal baseline was reached, loading 200 μl 80% isopropyl alcohol and ran for 10 s to drain bubbles. After reaching baseline, the sample ring was rinsed with HSB-EP buffer and emptied with air. After the signal reached the baseline, loading 200 μl EDC (400 mM, Sigma)/NHS (100 mM, Sigma; 1:1) solution with a flow rate 20 μl/min for 4 min. Then, loading 200 μl ligand (SotB/SotB variants) diluted by the activation buffer (sodium acetate, 10 mM, pH3.5) and ran for 4 min (20 μl/min). Then the sample ring was rinsed with HSB-EP buffer and emptied with air. Loading 200 μl 1 M ethanolamine (Sigma) blocking solution (20 μl/min, 4 min), rinsed the sample ring with HSB-EP buffer, and emptied the sample ring with air. Observing baseline for 5 min to ensure stability. The small molecules were diluted with PBS buffer (2 mM of KH2PO4, 10 mM of Na2HPO4, 2.7 mM of KCl, and 137 mM of NaCl at pH 7.4), and the concentration was shown in the experimental results. The flow rate for small molecules was performed at 20 μl/min. The binding time of small molecule and ligand was 240 s, and the dissociation was 240 s. The analysis software used for the experimental results was TraceDrawer, and the analysis method was one-to-one analysis model.

Assay [1] has as its system sotB-deletion E. coli MG1655 strain. The experiment in a line: Growth curve (L-arabinose inhibition) assay, sotB-deletion MG1655. In kind it is cell-based, Escherichia coli. The text has this: In the process of sotB gene knockout, two plasmids were introduced into E. coli MG1655 strain: the plasmid pEcCas expressing Cas9 protein (kanamycin resistance) and the plasmid pEcgRNA/sotB expressing related gRNA (spectinomycin resistance). The pEcCas plasmid was successfully eliminated in this study. […] Thus, the sotB-deletion strain has resistance to spectinomycin. In order to carry out the related L-arabinose inhibition assay more strictly, the same plasmid (pEcgRNA/sotB) was then transformed into intact E. coli MG1655 cells, and the growth conditions of the two strains were measured as follows: The E. coli MG1655 cells (intact cells and sotB-deletion cells) were grown in liquid LB medium containing spectinomycin (50 μg/ml) at 37°C for overnight. The cells were then diluted to an OD600 value of 0.8 with liquid LB medium containing spectinomycin (50 μg/ml). Then, the cells were further diluted 1,000 times with liquid LB medium containing spectinomycin (50 μg/ml). The diluted cells were added to a 96-well plate (200 μl/well). Then, L-arabinose was added with final concentrations of 0 μM, 10 μM, 100 μM, 1 mM, 10 mM, and 100 mM, respectively. The 96-well plate was incubated at 37°C, and the OD600 value was measured every 1 h with a microplate reader. […]

Substitutions are numbered along the chain they refer to. pKd: −log10 of the molar value.

The term pKd denotes −log10 of the Kd, conventionally taken in molar units. On to `OC1OC[C@H](O)[C@H](O)[C@H]1O` (mixture of isomers) [L-arabinose], for which the pKd on SotB W119A is 2.31; at SotB S339A, 2.46; at SotB N343A (SotB variant N343A, read-out: KD, binding affinity with N343A), 1.84. Further, the “Binding affinity of N343A, fold lower than the wild-type protein” value on SotB N343A (N343A vs wild-type SotB) is recorded as 3.5 fold. Besides, the “Effect on growth (OD600 growth curve)” value in assay [1] (sotB-deletion MG1655, 10 mM final concentration) is given as “significantly inhibit”; in assay [1] (sotB-deletion MG1655, 100 mM final concentration) it was “significantly inhibit”.
